How the values were obtained:
barnyardgrass [1] = test: Test A preemergence; assay type: in vivo, Echinochloa crus-galli
Outline: (§1)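 Compounds in non-phytotoxic solvent with surfactant applied as soil spray preemergence, or postemergence to plants 2-10 cm at one- to two-leaf stage, in loam/sand. After approximately 10 days in greenhouse, injury rated visually versus untreated controls, 0 (no effect) to 100 (complete control).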

large (Lg) crabgrass [2] = test: Test A preemergence; assay type: in vivo, Digitaria sanguinalis
Outline: as §1

giant foxtail [3] = test: Test A preemergence; assay type: in vivo, Setaria faberii; settings: for Foxtail, Giant plant response rating: 0 to 100 scale, 0 no effect, 100 complete control, approx. 10 days
Outline: as §1

morningglory [4] = test: Test A preemergence; assay type: in vivo, Ipomoea spp.; settings: for Morningglory plant response rating: 0 to 100 scale, 0 no effect, 100 complete control, approx. 10 days
Outline: as §1

pigweed [5] = test: Test A preemergence; assay type: in vivo, Amaranthus retroflexus; settings: for Pigweed plant response rating: 0 to 100 scale, 0 no effect, 100 complete control, approx. 10 days
Outline: as §1

velvetleaf [6] = test: Test A preemergence; assay type: in vivo, Abutilon theophrasti; settings: for Velvetleaf plant response rating: 0 to 100 scale, 0 no effect, 100 complete control, approx. 10 days
Outline: as §1

wheat [7] = test: Test A preemergence; assay type: in vivo, Triticum aestivum; settings: for Wheat plant response rating: 0 to 100 scale, 0 no effect, 100 complete control, approx. 10 days
Outline: as §1

corn [8] = test: Test A preemergence; assay type: in vivo, Zea mays
Outline: as §1

barnyardgrass [9] = test: Test A postemergence; assay type: in vivo, Echinochloa crus-galli
Outline: as §1

large (Lg) crabgrass [10] = test: Test A postemergence; assay type: in vivo, Digitaria sanguinalis
Outline: as §1

giant foxtail [11] = test: Test A postemergence; assay type: in vivo, Setaria faberii
Outline: as §1

morningglory [12] = test: Test A postemergence; assay type: in vivo, Ipomoea spp.
Outline: as §1

pigweed [13] = test: Test A postemergence; assay type: in vivo, Amaranthus retroflexus
Outline: as §1

velvetleaf [14] = test: Test A postemergence; assay type: in vivo, Abutilon theophrasti
Outline: as §1

wheat [15] = test: Test A postemergence; assay type: in vivo, Triticum aestivum
Outline: as §1

corn [16] = test: Test A postemergence; assay type: in vivo, Zea mays
Outline: as §1

rice = test: Test B flooded paddy test; assay type: in vivo, Oryza sativa; settings: Flood, 250 g ai/ha; 0 to 100 scale where 0 is no effect and 100 is complete control
Outline: (§2)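 Flooded to 3 cm at the 2-leaf stage, pots received compound through the paddy water and were kept at that depth under greenhouse conditions. After 13–15 days, effect was rated by eye relative to controls, 0 = none and 100 = complete control.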

sedge, umbrella = test: Test B flooded paddy test; assay type: in vivo, Cyperus difformis; settings: Flood, 250 g ai/ha; 0 to 100 scale where 0 is no effect and 100 is complete control
Outline: as §2

Heteranthera limosa = test: Test B flooded paddy test; assay type: in vivo; settings: Flood, 250 g ai/ha; 0 to 100 scale where 0 is no effect and 100 is complete control
Outline: as §2

barnyardgrass [17] = test: Test B flooded paddy test; assay type: in vivo, Echinochloa crus-galli; settings: Flood, 250 g ai/ha; 0 to 100 scale where 0 is no effect and 100 is complete control
Outline: as §2

[18] = 1000 g ai/ha, 0 to 100 scale, 0 no effect, 100 complete control
[19] = 125 g ai/ha, 0 to 100 scale where 0 is no effect and 100 is complete control
[20] = 500 g ai/ha, 0 to 100 scale, 0 no effect, 100 complete control, approx. 10 days
[21] = 500 g ai/ha, 0 to 100 scale, 0 no effect, 100 complete control
[22] = 500 g ai/ha, 0 to 100 scale where 0 is no effect and 100 is complete control

Clc1cnc(Oc2cccc(I)c2-n2cc(Br)cn2)nc1 [Compound 66]
Plant response rating, Barnyardgrass (barnyardgrass [1]; [18]): 90
Plant response rating, Crabgrass, Large (large (Lg) crabgrass [2]; [18]): 100
Foxtail, Giant plant response rating (giant foxtail [3]; 1000 g ai/ha): 100
Morningglory plant response rating (morningglory [4]; 1000 g ai/ha): 40
Pigweed plant response rating (pigweed [5]; 1000 g ai/ha): 100
Velvetleaf plant response rating (velvetleaf [6]; 1000 g ai/ha): 90
Wheat plant response rating (wheat [7]; 1000 g ai/ha): 10
Plant response rating, Corn (corn [8]; [18]): 30
Plant response rating, Barnyardgrass (barnyardgrass [9]; [18]): 80
Plant response rating, Crabgrass, Large (large (Lg) crabgrass [10]; [18]): 100
Plant response rating, Foxtail, Giant (giant foxtail [11]; [18]): 100
Plant response rating, Morningglory (morningglory [12]; [18]): 100
Plant response rating, Pigweed (pigweed [13]; [18]): 100
Plant response rating, Velvetleaf (velvetleaf [14]; [18]): 100
Plant response rating, Wheat (wheat [15]; [18]): 20
Plant response rating, Corn (corn [16]; [18]): 40
Plant response rating, Rice (rice): 0
Plant response rating, Sedge, Umbrella (sedge, umbrella): 0
Plant response rating, Ducksalad (Heteranthera limosa): 30
Plant response rating, Barnyardgrass (barnyardgrass [17]): 0

FC(F)(F)COc1cccc(Oc2ncc(Cl)cn2)c1-n1cc(Br)cn1 [Compound 69]
Plant response rating, Barnyardgrass (barnyardgrass [1]; [18]): 70
Plant response rating, Crabgrass, Large (large (Lg) crabgrass [2]; [18]): 90
Foxtail, Giant plant response rating (giant foxtail [3]; 1000 g ai/ha): 90
Morningglory plant response rating (morningglory [4]; 1000 g ai/ha): 10
Pigweed plant response rating (pigweed [5]; 1000 g ai/ha): 100
Velvetleaf plant response rating (velvetleaf [6]; 1000 g ai/ha): 80
Wheat plant response rating (wheat [7]; 1000 g ai/ha): 20
Plant response rating, Corn (corn [8]; [18]): 0
Plant response rating, Barnyardgrass (barnyardgrass [9]; [18]): 50
Plant response rating, Crabgrass, Large (large (Lg) crabgrass [10]; [18]): 80
Plant response rating, Foxtail, Giant (giant foxtail [11]; [18]): 70
Plant response rating, Morningglory (morningglory [12]; [18]): 30
Plant response rating, Pigweed (pigweed [13]; [18]): 100
Plant response rating, Velvetleaf (velvetleaf [14]; [18]): 60
Plant response rating, Wheat (wheat [15]; [18]): 30
Plant response rating, Corn (corn [16]; [18]): 20
Plant response rating, Rice (rice): 0
Plant response rating, Sedge, Umbrella (sedge, umbrella): 0
Plant response rating, Ducksalad (Heteranthera limosa): 0
Plant response rating, Barnyardgrass (barnyardgrass [17]): 0

N#Cc1cccc(Oc2ncc(Br)cn2)c1-n1cc(Cl)cn1 [Compound 71]
Plant response rating, Barnyardgrass (barnyardgrass [1]; [19]): 60
Barnyardgrass plant response rating (barnyardgrass [1]; [20]): 100
Plant response rating, Crabgrass, Large (large (Lg) crabgrass [2]; [19]): 100
Crabgrass, Large plant response rating (large (Lg) crabgrass [2]; [20]): 100
Plant response rating, Foxtail, Giant (giant foxtail [3]; [19]): 100
Foxtail, Giant plant response rating (giant foxtail [3]; 500 g ai/ha): 100
Plant response rating, Morningglory (morningglory [4]; [19]): 90
Morningglory plant response rating (morningglory [4]; 500 g ai/ha): 90
Plant response rating, Pigweed (pigweed [5]; [19]): 100
Pigweed plant response rating (pigweed [5]; 500 g ai/ha): 100
Plant response rating, Velvetleaf (velvetleaf [6]; [19]): 70
Velvetleaf plant response rating (velvetleaf [6]; 500 g ai/ha): 100
Plant response rating, Wheat (wheat [7]; [19]): 20
Wheat plant response rating (wheat [7]; 500 g ai/ha): 40
Plant response rating, Corn (corn [8]; [19]): 30
Corn plant response rating (corn [8]; [20]): 40
Plant response rating, Barnyardgrass (barnyardgrass [9]; [19]): 80
Plant response rating, Barnyardgrass (barnyardgrass [9]; [21]): 90
Plant response rating, Crabgrass, Large (large (Lg) crabgrass [10]; [19]): 70
Plant response rating, Crabgrass, Large (large (Lg) crabgrass [10]; [21]): 100
Plant response rating, Foxtail, Giant (giant foxtail [11]; [19]): 80
Plant response rating, Foxtail, Giant (giant foxtail [11]; [22]): 90
Plant response rating, Morningglory (morningglory [12]; [19]): 70
Plant response rating, Morningglory (morningglory [12]; [22]): 90
Plant response rating, Pigweed (pigweed [13]; [19]): 100
Plant response rating, Pigweed (pigweed [13]; [22]): 100
Plant response rating, Velvetleaf (velvetleaf [14]; [19]): 90
Plant response rating, Velvetleaf (velvetleaf [14]; [22]): 100
Plant response rating, Wheat (wheat [15]; [19]): 10
Plant response rating, Wheat (wheat [15]; [22]): 40
Plant response rating, Corn (corn [16]; [19]): 30
Plant response rating, Corn (corn [16]; [21]): 60
Plant response rating, Rice (rice): 30
Plant response rating, Sedge, Umbrella (sedge, umbrella): 70
Plant response rating, Ducksalad (Heteranthera limosa): 0
Plant response rating, Barnyardgrass (barnyardgrass [17]): 0

From patent publication US9695155B2, “Herbicidal substituted pyrimidinyloxy benzene compounds” (E. I. DU PONT DE NEMOURS AND COMPANY, priority 2013, dated 2017)
